This is an account of results in patent US8211885B2, “Cyclic indole-3-carboxamides, their preparation and their use as pharmaceuticals” (Sanofi-Aventis, priority 2008, dated 2012).

Structures are written as SMILES.

The target in one assay is T1, Recombinant human renin (Homo sapiens, UniProt P00797).
T1 construct: purchased Cayman 10006217
T1 sequence (P00797 67-406): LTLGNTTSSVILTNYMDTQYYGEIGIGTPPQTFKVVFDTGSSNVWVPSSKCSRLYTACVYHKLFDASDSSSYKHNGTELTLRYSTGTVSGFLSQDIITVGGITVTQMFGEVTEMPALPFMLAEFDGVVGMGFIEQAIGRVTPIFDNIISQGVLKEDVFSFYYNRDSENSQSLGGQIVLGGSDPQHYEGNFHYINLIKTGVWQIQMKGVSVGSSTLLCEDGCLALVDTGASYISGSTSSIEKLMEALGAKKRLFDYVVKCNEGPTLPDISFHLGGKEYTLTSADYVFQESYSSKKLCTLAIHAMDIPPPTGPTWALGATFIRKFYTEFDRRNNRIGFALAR
The experiment in a line: Inhibition of renin (fluorogenic peptide substrate). Type of assay: biochemical.
Settings: not given
The protocol:
Recombinant human renin (Cayman, no. 10006217) at a concentration of 5 nM was incubated with the test compounds at various concentrations and the synthetic substrate Dabcyl-γ-Abu-[…]EDANS (Bachem, no. M-2050; Dabcyl means the 4-(4-dimethylamino-phenylazo)-benzoyl group and EDANS means the amide with 5-[(2-aminoethyl)amino]-naphthalene-1-sulfonic acid) at a concentration of 10 μM for 2 h at room temperature in 0.05 M Tris buffer (pH 8) containing 0.1 M NaCl, 2.5 mM EDTA and 1.25 mg/ml bovine serum albumin. The increase in fluorescence, which is due to fluorescence resonance energy transfer, was recorded at an excitation wavelength of 330 nm and an emission wavelength of 485 nm in a microplate spectrofluorometer. Inhibitory concentrations IC50 were calculated from the percentage of inhibition of renin activity as a function of the concentration of the test compound.
`CN(c1ccccc1)c1c(C(=O)N2CCNCC2)c2ccccc2n1-c1ccccc1` [Example 3, [2-(Methyl-phenyl-amino)-1-phenyl-1H-indol-3-yl]-piperazin-1-yl-methanone]: the concentration for half-maximal inhibition (IC50) came to 3200 nM.

Still in this assay, the particulars now being: renin 5 nM, substrate Dabcyl-γ-Abu-[…]-EDANS 10 μM, 2 h room temperature, Tris buffer pH 8; compounds tested as the obtained salt; read-out: IC50 values for inhibition of renin (fluorogenic peptide substrate).
In the case of `O=C(c1c(Oc2ccccc2)n(-c2ccccc2)c2ccccc12)N1CCCNCC1` [Example 5, Perhydro-1,4-diazepin-1-yl-(2-phenoxy-1-phenyl-1H-indol-3-yl)-methanone], the IC50 is 3400 nM.
Still for that read-out and setting: the result for `Cc1ccc(F)cc1Oc1c(C(=O)N2CCNCC2)c2ccccc2n1C1C=CCCC1` (centres unmarked) [Example 22, [1-Cyclohex-2-enyl-2-(5-fluoro-2-methyl-phenoxy)-1H-indol-3-yl]-piperazin-1-yl-methanone] reads 7.2 nM; that for `O=C(c1c(Oc2ccccc2)n(-c2ccccc2)c2ccccc12)N1CCNC(CO)C1` (centres unmarked) [Example 24, (3-Hydroxymethyl-piperazin-1-yl)-(2-phenoxy-1-phenyl-1H-indol-3-yl)-methanone], 1600 nM; that for `Cc1ccc(F)cc1Oc1c(C(=O)N2CCNCC2)c2ccc(OCC(=O)O)cc2n1-c1ccccc1` [Example 30, [2-(5-Fluoro-2-methyl-phenoxy)-1-phenyl-3-(piperazine-1-carbonyl)-1H-indol-6-yloxy]-acetic acid], 130 nM.
Still for that read-out and setting: next, `Cc1ccccc1Sc1c(C(=O)N2CCNCC2)c2ccccc2n1-c1ccccc1` [Example 108]: 71 nM; `Cc1ccccc1Cc1c(C(=O)N2CCNCC2)c2ccccc2n1-c1ccsc1` [Example 113]: 230 nM.
Still for that read-out and setting: the result for `O=C(c1c(Oc2ccccc2)n(-c2ccccc2)c2ccccc12)N1CCNCC1Cc1ccccc1` (centres unmarked) [Example 126] reads 4500 nM.

In general, IC50 refers to the concentration at which inhibition is half-maximal.
